Results on one compound are retold here after patent publication US20160067247A1, “NOVEL USE” (GlaxoSmithKline Intellectual Property (No.2) Limited, priority 2012, published 2016).

Where two headings read alike, the source gives them in different places.

The subject of data set [1] is AKT phosphorylation (Ser 473). Briefly: FCS induced AKT phosphorylation (Ser473) in IPF primary human lung fibroblasts, MSD assay (Example 1). The data set is classed as cell-based. The conditions noted are these: Fibroblast, 0.5 h, fibroblasts from n=4 IPF lungs, 10% FCS, 30 minutes, geometric mean (95% CI 0.83-8 nM), read-out: IC50 for inhibition of FCS induced AKT phosphorylation. The method, then:
Phosphorylation of AKT is widely accepted as an indication of PI3-kinase activity, and is utilised here to obtain an IC50 for the effect of 2,4-difluoro-N-{2-(methyloxy)-5-[4-(4-pyridazinyl)-6-quinolinyl]-3-pyridinyl}benzenesulfonamide on primary human lung fibroblasts isolated from the IPF patients, in addition to macrophages isolated from IPF bronchoalveolar lavage (BALF).
Fibroblasts are seeded in 96 well plates at a density of 10,000 cells per well. Following 24 hours of serum starvation, fibroblasts are pre-incubated for 15 minutes in serum free buffer containing a range of concentrations of 2,4-difluoro-N-{2-(methyloxy)-5-[4-(4-pyridazinyl)-6-quinolinyl]-3-pyridinyl}benzenesulfonamide (50 μl volumes per well, comprising 1:10 dilutions of inhibitor ranging from [3×10^−12M] to [3×10^−7M] in serum free DMEM). Fibroblasts are stimulated by the addition of foetal calf serum (FCS) to a final volume of 10%. 30 minutes after stimulation, supernatants are rapidly decanted, and the cell plate placed on ice. 35 μl of 1× Complete Lysis buffer is added to each well and incubated for 10 minutes at 4° C., and stored at −80° C. prior to further analysis. […] The assay protocol is completed as per manufacturer's instructions and plates analysed on an MSD SECTOR Imager. Data are read out as the % of total AKT phosphorylated at position Ser473.

The subject of data set [2] is primary human lung fibroblasts. Nature of the data set: 72 hour cell population growth, MTS assay (CellTiter 96 AQueous). The data set is classed as cell-based. The conditions noted are these: for IC50: Homo sapiens, Fibroblast, 72 h, 10% FBS, read-out: mean pIC50, inhibition of cell growth (MTS) (converted). The procedure:
Primary human fibroblasts were isolated by explant culture from non-IPF lung tissue, obtained post mortem following sudden trauma, and IPF lung tissue obtained from the lungs of IPF patients which were removed for transplantation or biopsy. Explants were cultured in DMEM containing high glucose and sodium pyruvate (PAA laboratories, catalogue #E15-011) with penicillin/streptomycin (Sigma #P4333), amphotericin B (Sigma #A2942), L-glutamine (Gibco #25030) and 20% FBS (foetal bovine serum, Lonza, catalogue #14-801F, Lot #1SB003) at 37° C., 100% humidity, 10% CO2. Cells were designated non-IPF (UCL marked 0110 and 0610) and IPF (UCL marked 0207, 0208, 0308, 0507 and 0508) based on medical diagnosis.
Human lung primary fibroblast cell lines were cultured in DMEM containing high glucose and sodium pyruvate supplemented with L-glutamine, penicillin/streptomycin and 10% FBS (complete DMEM) at 37° C., 100% humidity, 10% CO2. Cells were split into T175 flasks (NUNC #159910) 2 to 3 days prior to assay set-up at a density which yields approximately 70-80% confluence at time of harvest for assay. […]
For reading 20 μL of CellTiter 96™ AQueous non-radioactive cell growth assay (MTS) reagent (Promega #G5430) was added to all wells. Plates were incubated for a further 2 hours at 37° C., 100% humidity, 10% CO2 then read at 490 nm on a Versamax microplate reader using Softmax Pro v5 software. Readings were corrected for FBS discoloration as per manufacturer's instructions, by the subtraction of values from media control (no cell) wells.
The maximum fitted (upper asymptote) value for each experiment and used as the 100% reference response. The MTS signal (with media background values subtracted) in the presence of increasing log Molar concentrations of 2,4-difluoro-N-{2-(methyloxy)-5-[4-(4-pyridazinyl)-6-quinolinyl]-3-pyridinyl}benzenesulfonamide were expressed as a % of the maximum asymptote. […]
In a subset of experiments, where cell growth was measured in parallel with activation of caspase 3/7, T0 readings were taken when serum free medium was changed to 10% FBS and compound added. […]

On to `COc1ncc(-c2ccc3nccc(-c4ccnnc4)c3c2)cc1NS(=O)(=O)c1ccc(F)cc1F` [2,4-difluoro-N-{2-(methyloxy)-5-[4-(4-pyridazinyl)-6-quinolinyl]-3-pyridinyl}benzenesulfonamide], for which the IC50 in data set [1] was 2.58 nM; in data set [2] (IPF fibroblasts, n=5 cell lines (+/-0.1 SEM)), 31.6 nM; in data set [2] (primary human non-IPF fibroblasts, n=2 lines (±0.2 SEM)), 20 nM. Further, in data set [2] (fibroblasts), the “concentration at which MTS signal with 10% FBS appeared lower than no FBS controls (reduction in cell number, potentially indicative of cell death)” value is listed as more than 30 nM.
